Experimental data as given in patent US20020052295A1, “Diacyl derivatives of propylene diamine having herbicidal activity” (priority 1999, published 2002).

Columns and labels:
Details in all cases: lowest tested rate giving 80% or greater inhibition, approx. 14 days after planting and treating, greenhouse
[1] = system: SORHA; assay: Pre-emergence herbicidal activity on SORHA (johnsongrass, seedling); type: in vivo, Sorghum halepense
From the text: (§1) All such uses, and the biological activity enabling such uses, are embraced by the term “herbicidal” herein. Tables 15 and 16 summarize results of tests conducted as described below to determine the pre-emergence herbicidal activity, in the form of a GR80 value, of illustrative compounds of this invention. […] Where herbicidal activity was evident but 80% inhibition was not achieved at the highest rate tested (typically 1000 g/ha), an asterisk (*) is shown in the following tables. Herbicidal activity evident in the form of symptoms of phytotoxicity, in the absence of at least 80% inhibition at any rate, is indicated in the tables by “phyto”. A blank cell in the following tables indicates no herbicidal or phytotoxic response at any rate tested.
(§2) The pre-emergence tests were conducted by the following procedure. Topsoil was sieved to pass through a 1.27 cm screen. Fertilizer was added to the topsoil and the mixture was then sterilized by heating. The topsoil mixture was placed in a pot and compacted to a depth of 1.0 to 1.25 cm from the top of the pot. Seeds of each of several monocotyledonous and dicotyledonous annual plant species were placed on top of the soil. Additional soil was subsequently placed over the seeds to level-fill the pot. A known amount of each test compound dissolved or suspended in an appropriate organic solvent was diluted with a 50:50 mix of acetone and water and applied to the surface of the soil. After treatment the plants were placed in a greenhouse with a 30/21° C. day/night temperature regime where they received 0.64 cm of overhead irrigation. All subsequent watering consisted of a light overhead mist and/or subirrigation as needed for germination and growth.
(§3) Approximately 14 days after planting and treating, the plants were observed and herbicidal efficacy recorded as percent inhibition by comparison with untreated plants.
(§4) The plant species usually regarded as weeds which were utilized in the tests are identified in the tables below according to the following legend, in which “d” indicates a dicotyledonous species and “m” a monocotyledonous species. All monocotyledonous species included in the tests herein are grasses.

[2] = system: BRAPP; assay: Pre-emergence herbicidal activity on BRAPP (broadleaf signalgrass); type: in vivo, Brachiaria platyphylla
From the text: as §1, §2, §3, §4

[3] = system: POROL; assay: Pre-emergence herbicidal activity on POROL (common purslane); type: in vivo, Portulaca oleracea
From the text: as §1, §2, §3, §4

[4] = system: DATST; assay: Pre-emergence herbicidal activity on DATST (jimsonweed); type: in vivo, Datura stramonium
From the text: as §1, §2, §3, §4

[5] = system: ABUTH; assay: Pre-emergence herbicidal activity on ABUTH (velvetleaf); type: in vivo, Abutilon theophrasti
From the text: as §1, §2, §3, §4

[6] = system: SOLNI; assay: Pre-emergence herbicidal activity on SOLNI (black nightshade); type: in vivo, Solanum nigrum
From the text: as §1, §2, §3, §4

[7] = system: CIRAR; assay: Pre-emergence herbicidal activity on CIRAR (canada thistle, seedling); type: in vivo, Cirsium arvense
From the text: as §1, §2, §3, §4

[8] = system: AMARE; assay: Pre-emergence herbicidal activity on AMARE (redroot pigweed); type: in vivo, Amaranthus retroflexus
From the text: as §1, §2, §3, §4

[9] = system: DIGSA; assay: Pre-emergence herbicidal activity on DIGSA (large crabgrass); type: in vivo, Digitaria sanguinalis
From the text: as §1, §2, §3, §4

[10] = system: CHEAL; assay: Pre-emergence herbicidal activity on CHEAL (common lambsquarters); type: in vivo, Chenopodium album
From the text: as §1, §2, §3, §4

[11] = system: ECHCG; assay: Pre-emergence herbicidal activity on ECHCG (barnyardgrass); type: in vivo, Echinochloa crus-galli
From the text: as §1, §2, §3, §4

[12] = system: PANDI; assay: Pre-emergence herbicidal activity on PANDI (fall panicum); type: in vivo, Panicum dichotomiflorum
From the text: as §1, §2, §3, §4

[13] = system: SETFA; assay: Pre-emergence herbicidal activity on SETFA (giant foxtail); type: in vivo, Setaria faberi
From the text: as §1, §2, §3, §4

[14] = system: PANMI; assay: Pre-emergence herbicidal activity on PANMI (wild proso millet); type: in vivo, Panicum miliaceum
From the text: as §1, §2, §3, §4

[15] = system: CONAR; assay: Pre-emergence herbicidal activity on CONAR (field bindweed); type: in vivo, Convolvulus arvensis
From the text: as §1, §2, §3, §4

Row | SMILES | Pre-emergence activity (GR80) on SORHA [1] | Pre-emergence activity (GR80) on BRAPP [2] | Pre-emergence activity (GR80) on PORAL [3] [g/ha] | Pre-emergence activity (GR80) on DATST [4] | Pre-emergence activity (GR80) on ABUTH [5] | Pre-emergence activity (GR80) on SOLNI [6] | Pre-emergence activity (GR80) on CIRAR [7] | Pre-emergence activity (GR80) on AMARE [8] [g/ha] | Pre-emergence activity (GR80) on DIGSA [9] | Pre-emergence activity (GR80) on CHEAL [10] [g/ha] | Pre-emergence activity (GR80) on ECHCG [11] | Pre-emergence activity (GR80) on PANDI [12] | Pre-emergence activity (GR80) on SETFA [13] | Pre-emergence activity (GR80) on PANMI [14] | Pre-emergence activity (GR80) on CONAR [15]
1 | CC(CNC(=O)c1cccc(C(F)(F)F)c1)NC(=O)c1cc(C(F)(F)F)ccc1Cl (stereo not drawn) [Example 9] | * (Where herbicidal activity was evident but 80% inhibition was not achieved at the highest rate tested (typically 1000 g/ha), an asterisk (*) is shown) | phyto | 125 | 500 g/ha | phyto | 500 g/ha | 750 g/ha | 125 | 500 g/ha | 500 | phyto | 500 g/ha | 1000 g/ha | phyto | –
2 | CC(CNC(=O)c1cccc(C(F)(F)F)c1)NC(=O)c1cccc(C(F)(F)F)c1I (stereo not drawn) [Example 15] | – | – | 500 | * (Where herbicidal activity was evident but 80% inhibition was not achieved at the highest rate tested (typically 1000 g/ha), an asterisk (*) is shown) | – | * (Where herbicidal activity was evident but 80% inhibition was not achieved at the highest rate tested (typically 1000 g/ha), an asterisk (*) is shown) | phyto | 64 | phyto | 125 | phyto | phyto | phyto | – | phyto
3 | Cc1ccc(C)c(C(=O)NC(C)CNC(=O)c2cccc(C(F)(F)F)c2)c1 (stereo not drawn) [Example 64] | * (Where herbicidal activity was evident but 80% inhibition was not achieved at the highest rate tested (typically 1000 g/ha), an asterisk (*) is shown) | 500 g/ha | 250 | 1000 g/ha | 500 g/ha | 250 g/ha | 250 g/ha | 250 | 250 g/ha | 250 | 1000 g/ha | 250 g/ha | 1000 g/ha | 500 g/ha | –
4 | Cc1cccc(C(=O)NC(C)CNC(=O)c2cccc(C(F)(F)F)c2)c1C (stereo not drawn) [Example 67] | – | 1000 g/ha | 500 | 500 g/ha | 500 g/ha | – | 500 g/ha | 500 | 500 g/ha | 250 | * (Where herbicidal activity was evident but 80% inhibition was not achieved at the highest rate tested (typically 1000 g/ha), an asterisk (*) is shown) | 500 g/ha | 750 g/ha | – | 1000 g/ha
5 | CC(CNC(=O)c1cccc(Br)c1)NC(=O)c1cccc(C(F)(F)F)c1F (stereo not drawn) [Example 152] | – | – | 125 | 750 g/ha | 750 g/ha | 500 g/ha | 250 g/ha | 250 | 500 g/ha | 250 | 750 g/ha | – | – | – | –
